Measured values reported in PubChem BioAssay AID2305 (GlaxoSmithKline (GSK), 2010).

System: P. falciparum 3D7 growth, pLDH absorbance
Assay: P. falciparum 3D7 growth inhibition, dose response, strain 3D7 (AID 2305)

Row | Compound | IC50 [nM]
1 | N#Cc1ccc(CN2CCCN(Cc3cccc(NC(=O)c4ccc(-c5ccccc5)cc4)c3)CC2)cc1 | 1020
2 | Cc1ccc(NC(=O)N2CCCN(CCCCCNC(=O)/C=C/c3ccc(Cl)c(Cl)c3)CC2)cc1C | 770
3 | COc1ccc(CN2CCC(CN3CC4(OC3=O)c3ccccc3-c3ccccc34)C2)c(O)c1 (stereo not drawn) | 610
4 | O=C(Nc1ccc(-c2nc3ccccc3[nH]2)cc1)c1ccc(Cl)c([N+](=O)[O-])c1 | 800
5 | NCc1ccc(CNCc2ccc(-c3ccc(-c4nc5ccc(C(F)(F)F)cc5[nH]4)s3)cc2)cc1 | 160
6 | COc1ccc2nccc([C@@H](O)CN3CCC(NCc4nc5c(C#N)cccc5[nH]4)CC3)c2c1 | 1000
7 | CC(C)Cn1cc(C2CCN(CCN3CCC(CNC(=O)c4ccc(-c5ccc(C(F)(F)F)cc5)cc4)CC3)CC2)c2ccccc21 | 750
8 | CC1CCCN(C(=O)c2cc(-c3ccccn3)nc3c(Cl)cccc23)C1 (stereo not drawn) | 1080
9 | CNC(=O)C1Cc2c([nH]c3ccc(Br)cc23)C2(CCN(CCc3ccccc3)CC2)N1 (stereo not drawn) | 920
10 | CCNCc1ccc(-c2cc3ncnc(Nc4ccc(OCc5cccc(F)c5)c(Cl)c4)c3s2)[nH]1 | 110
11 | O=C(NCc1cccnc1)C(c1cc2ccccc2o1)N1CCN(C(c2ccccc2)c2ccccc2)CC1 (stereo not drawn) | 710
12 | O=C(Nc1ccc2c(c1)CCNCC2)Nc1ccc2ccccc2c1 | 620
13 | CCCCCCNC(=O)C1Cc2c([nH]c3ccc(Br)cc23)C2(CCN(Cc3ccccc3)CC2)N1 (stereo not drawn) | 720
14 | CCn1c(-c2nonc2N)nc2c(-c3cccc(Cl)c3)ncc(OCCCNCCc3cnc[nH]3)c21 | 980
15 | Cc1cc(N[C@@H](Cc2ccccc2)C(=O)NCc2cccc(F)c2)nc(NCc2ccccc2C)n1 | 980
16 | CC[C@H]1CN2CC[C@H]1C[C@H]2[C@H](O)c1cc(-c2ccc(F)cc2C)nc2ccc(OC)cc12 | 160
17 | C=C[C@H]1CN2CC[C@H]1C[C@H]2[C@H](O)c1ccnc2ccccc12 | 170
18 | CCCNCc1ccc(-c2ccc(CN(CCOC)C(=O)c3nn(-c4ccccc4)nc3C)cc2)nc1 | 730
19 | O=C(O)c1ccc2nc(-c3ccccn3)c(-c3ccccn3)nc2c1 | 220
20 | Cc1nn(C)cc1C(C)Nc1nncc(-c2ccc(C(F)(F)F)cc2)n1 (stereo not drawn) | 250
21 | CC(C)(C)CN1C(=O)C(c2ccccc2)(c2ccccc2)N=C1N | 520
22 | COc1ccc2ccccc2c1C=NNc1cc(C)nc2c(C)cccc12 | 820
23 | CN(C)CCCn1c(C(=O)OC(c2ccccc2)c2ccccc2)cc2cc(OCc3ccccc3)ccc21 | 200
24 | COc1ccc(C=Cc2cc(N)c3ccccc3n2)cc1Br | 710

Row | Compound | IC50 [nM]
25 | Cc1ccc(CCOCCCCCNCC(O)c2cc(Cl)c(N)c(Cl)c2)cc1 (stereo not drawn) | 950
26 | O=C(NCc1ccccc1)NC1CCN(c2ccnc3cc(Cl)ccc23)C1 (stereo not drawn) | 160
27 | O=C(NC1CC1)c1ccc(N2CCC(COc3cccc(F)c3)CC2)nc1 | 1240
28 | CCOc1ccc2nc(C)cc(NN=Cc3ccncc3)c2c1 | 990
29 | Cc1cc(=O)[nH]c(/N=C(/N)NOCCCc2ccccc2)n1 | 760
30 | O=S(=O)(c1ccc2ccccc2c1)N1CCCN(Cc2ccc(OCCCN3CCCCC3)cc2)CC1 | 1100
31 | O=C(Nc1ccc(-c2ccc(-c3nc4ccc(C(F)(F)F)cc4[nH]3)s2)cc1)c1cnc[nH]1 | 670
32 | COC[C@H]1CCCN1Cc1ccc(-c2ccc(-c3nc4ccccc4[nH]3)s2)cc1 | 1000
33 | Cc1cc(N(C)C2CCN(CC3CCCCC3)C2)nc(Nc2ccc(Cl)cc2)n1 (stereo not drawn) | 680
34 | Cc1cccc2[nH]c(-c3ccc(-c4cccc(CNCc5ccc(CN)cc5)c4)s3)nc12 | 610
35 | COc1ccc(Nc2ncc3c(-c4cccc(NC(=O)Cc5ccncc5)c4)c[nH]c3n2)cc1OC | 1230
36 | O=c1cc(NCCCNCc2cc3c(Cl)cc(Cl)cc3[nH]2)[nH]c2ccccc12 | 860
37 | CCCSc1nc2c(c(=O)n1CCc1ccccc1)C1(CCCC1)Cc1ccccc1-2 | 700
38 | CC(C)CCN1C(=O)C(NC(=O)Oc2ccccc2)C(=O)N(CC23CC4CC(CC(C4)C2)C3)c2ccccc21 (stereo not drawn) | 750
39 | CN1CC[C@H](N(Cc2ccccc2F)c2ccc(C#N)c(Cl)c2)C1 | 1270
40 | c1cncc(CCNCc2cccc(-c3csc(-c4nc5ccccc5[nH]4)c3)c2)c1 | 700
41 | CCCC[C@@H](C(=O)NCc1ccccc1C(F)(F)F)N1C(=O)CCC1C(=O)Nc1ccc([N+](=O)[O-])cc1 (stereo partly drawn) | 850
42 | O=C(Nc1cc(Cl)cc(Cl)c1)c1cnn(-c2ccc(F)cc2)c1C1CCNCC1 | 850
43 | NC(N)=NCCCN(Cc1ccccc1)c1ccccc1 | 580
44 | COc1cc2c(cc1S(=O)(=O)c1ccc(NC(=O)c3ccc4ccccc4c3)cc1)CCN(C)CC2 | 800
45 | NC(=O)c1cnc2cc(-c3ccncc3)cc(Nc3ccc(NC(=O)C4CCCCC4)cc3)c2c1 | 230
46 | O=C(NCCN1Cc2ccccc2C1=O)c1ccc(Oc2ccc(C(=O)NCCN3Cc4ccccc4C3=O)cc2)cc1 | 360
47 | COc1ccc(NC(=O)[C@H](CC(C)C)Nc2cc(C)nc(NCCOc3ccccc3)n2)cc1 | 800
48 | CCc1c[nH]c2c(N(c3ccccc3)S(C)(=O)=O)cc(C(=O)N[C@@H](Cc3ccccc3)[C@H](O)CNC(C)(C)CCCC(C)C)cc12 | 820
